For assay [1], the target named is T1, Amyloid-beta precursor protein (Homo sapiens, UniProt P05067). Kind of assay: Inhibition of amyloid beta (unknown origin) aggregation.
For assay [2], the target named is T2, Acetylcholinesterase (Homo sapiens, UniProt P22303). The experiment in a line: Inhibition of AChE (unknown origin).
Assay [3] concerns Mus musculus. Kind of assay: Antialzheimer activity in Tg2576 mouse model assessed as decrease in soluble amyloid beta level in brain homogenate at 20 mg/kg, ip administered daily for 30 days relative to control. It is filed as functional. On the set-up: scale not given: the % may be the effect or the level left. The note with it: time 30 day.
Assay [4] addresses T1, Amyloid-beta precursor protein. The experiment in a line: Inhibition of amyloid beta (1 to 42) (unknown origin) fibril formation incubated for 1 hr by thioflavin-T fluorescence assay.
Assay [5] concerns the target T3, Cholinesterase (Homo sapiens, UniProt P06276). Kind of assay: Inhibition of BuChE (unknown origin).
In assay [6] the target is T1, Amyloid-beta precursor protein. Kind of assay: Inhibition of self-induced amyloid beta (unknown origin) aggregation.
For assay [7], the system named is SH-SY5Y. Kind of assay: Neuroprotective activity against human SH-SY5Y cells assessed as increase in cell viability at 25 uM relative to control. It is filed as functional.
Assay [8] deals with SH-SY5Y. Kind of assay: Neuroprotective activity against amyloid beta treated human SH-SY5Y cells at 1 nM relative to control. Format: functional.
Assay [9] deals with Glycogen synthase kinase-3 beta (Homo sapiens) (UniProt P49841). Kind of assay: Non-competitive inhibition of GSK3-beta (unknown origin) assessed as inhibition of tau hyperphosphorylation at 100 ug/ml incubated for 1 hr in presence of ATP by ADP-Glo kinase assay relative to control. The note with it: dose 100.0 µg/ml. On the technique in general: ADP-Glo first removes unused ATP, then detects ADP through luciferase.

A short description of assay [10]: Antioxidant activity of compound assessed as trolox equivalent preincubated for 15 mins followed by AAPH addition and measured for 90 mins by ORAC-FL assay. Format: functional. The note with it: time 105.0 min.
Assay [11] concerns the target T2, Acetylcholinesterase. Kind of assay: Inhibition of human recombinant AChE preincubated for 20 mins followed by substrate addition by Ellman's method. Background: Ellman's reagent forms a yellow product with free thiols.
Assay [12] has as its target T3, Cholinesterase. Kind of assay: Inhibition of human serum BuChE preincubated for 20 mins followed by substrate addition by Ellman's method. It is filed as cell-free.
Assay [13] addresses T1, Amyloid-beta precursor protein. The experiment in a line: Inhibition of self-induced amyloid beta (unknown origin) aggregation relative to control. The note with it: concentration not given here.
Assay [14] shares this target. Kind of assay: Inhibition of self-induced amyloid beta (unknown origin) aggregation at 100 uM relative to control.
Assay [15] addresses T4, Beta-secretase 1 (Homo sapiens, UniProt P56817). Kind of assay: Inhibition of human BACE-1 at 100 uM relative to control.
For assay [16], the target named is T2, Acetylcholinesterase. Kind of assay: Inhibition of AChE (unknown origin) at 100 uM relative to control.
Assay [17] has as its target T5, Amine oxidase [flavin-containing] B (Homo sapiens, UniProt P27338).
T5 sequence (P27338 whole entry): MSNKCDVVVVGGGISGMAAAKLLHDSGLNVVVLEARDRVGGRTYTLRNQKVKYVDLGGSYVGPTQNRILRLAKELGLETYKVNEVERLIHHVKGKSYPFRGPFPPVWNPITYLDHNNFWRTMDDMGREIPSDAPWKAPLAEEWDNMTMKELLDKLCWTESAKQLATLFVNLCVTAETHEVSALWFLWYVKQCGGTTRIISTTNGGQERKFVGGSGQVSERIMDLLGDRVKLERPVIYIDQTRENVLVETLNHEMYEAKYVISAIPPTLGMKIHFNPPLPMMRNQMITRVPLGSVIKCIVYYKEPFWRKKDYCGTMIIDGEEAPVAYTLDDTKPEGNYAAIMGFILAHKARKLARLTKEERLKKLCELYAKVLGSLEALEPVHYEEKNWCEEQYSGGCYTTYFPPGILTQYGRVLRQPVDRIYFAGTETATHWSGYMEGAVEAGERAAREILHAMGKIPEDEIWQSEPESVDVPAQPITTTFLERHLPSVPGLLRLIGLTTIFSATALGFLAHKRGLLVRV
Kind of assay: Inhibition of human MAO-B.

The target in assay [18] is T3, Cholinesterase. The experiment in a line: Inhibition of BuChE (unknown origin) relative to control. The note with it: concentration not given here.
For assay [19], the target named is T2, Acetylcholinesterase. The experiment in a line: Inhibition of AChE (unknown origin) relative to control. The note with it: concentration not given here.
In assay [20] the target is T4, Beta-secretase 1. Kind of assay: Inhibition of BACE-1 (unknown origin) relative to control. The note with it: concentration not given here.
The target in assay [21] is T1, Amyloid-beta precursor protein. The experiment in a line: Inhibition of self-induced amyloid beta (unknown origin) aggregation at 3 uM relative to control.
The subject of a further assay is HT-22. The experiment in a line: Neuroprotective activity against glutamate-induced cell death in mouse HT-22 cells at 10 uM relative to control. It is filed as functional.
Assay [22] has as its target T1, Amyloid-beta precursor protein. Kind of assay: Inhibition of self-induced amyloid beta (1 to 42) (unknown origin) aggregation at 10 uM relative to control.
Assay [23] concerns the target T4, Beta-secretase 1. The experiment in a line: Inhibition of human BACE-1.
Assay [24] deals with Mus musculus. The experiment in a line: Anti-alzheimer activity in APP/PS1 mouse model assessed as reduction in cerebral levels of insoluble amyloid beta (1 to 40) at 40 mg/kg, po administered via oral gavage once a day for 12 weeks relative to control. It is filed as functional. On the set-up: scale not given: the % may be the effect or the level left.
Assay [25] deals with T5, Amine oxidase [flavin-containing] B. The experiment in a line: Inhibition of MAO-B (unknown origin).
Assay [26] concerns the target T2, Acetylcholinesterase. Kind of assay: Inhibition of AChE (unknown origin) assessed as inhibition constant.
For another assay, the system named is HepG2. The experiment in a line: Cytotoxicity against human HepG2 cells assessed as reduction in cell viability at 10 uM relative to control. It is filed as functional.
Assay [27] addresses T1, Amyloid-beta precursor protein. The experiment in a line: Inhibition of self-induced amyloid beta (unknown origin) aggregation at 20 uM relative to control.
Assay [28] addresses T4, Beta-secretase 1. Kind of assay: Inhibition of human BACE-1 at 500 uM relative to control.

T1 sequence (P05067 whole entry): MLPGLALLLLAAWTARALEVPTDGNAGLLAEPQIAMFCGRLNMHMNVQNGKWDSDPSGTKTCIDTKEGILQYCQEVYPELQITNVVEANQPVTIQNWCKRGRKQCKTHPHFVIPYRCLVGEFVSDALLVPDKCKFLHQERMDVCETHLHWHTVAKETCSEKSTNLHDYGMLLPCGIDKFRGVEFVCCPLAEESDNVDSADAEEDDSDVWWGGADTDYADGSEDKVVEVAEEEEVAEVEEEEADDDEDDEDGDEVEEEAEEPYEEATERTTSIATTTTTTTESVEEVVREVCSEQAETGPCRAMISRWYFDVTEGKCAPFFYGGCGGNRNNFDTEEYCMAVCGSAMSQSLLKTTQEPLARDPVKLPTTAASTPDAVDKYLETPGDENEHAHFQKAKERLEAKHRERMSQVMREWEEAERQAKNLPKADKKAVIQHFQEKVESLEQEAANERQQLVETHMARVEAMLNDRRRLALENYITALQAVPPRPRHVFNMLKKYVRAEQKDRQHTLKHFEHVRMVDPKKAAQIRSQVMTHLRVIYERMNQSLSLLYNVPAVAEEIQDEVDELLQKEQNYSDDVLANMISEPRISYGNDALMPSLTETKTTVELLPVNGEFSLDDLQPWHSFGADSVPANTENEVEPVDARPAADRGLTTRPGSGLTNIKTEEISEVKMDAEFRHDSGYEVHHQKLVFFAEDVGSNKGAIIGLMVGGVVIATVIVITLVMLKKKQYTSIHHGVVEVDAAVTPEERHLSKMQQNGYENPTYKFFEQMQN
T2 sequence (P22303 whole entry): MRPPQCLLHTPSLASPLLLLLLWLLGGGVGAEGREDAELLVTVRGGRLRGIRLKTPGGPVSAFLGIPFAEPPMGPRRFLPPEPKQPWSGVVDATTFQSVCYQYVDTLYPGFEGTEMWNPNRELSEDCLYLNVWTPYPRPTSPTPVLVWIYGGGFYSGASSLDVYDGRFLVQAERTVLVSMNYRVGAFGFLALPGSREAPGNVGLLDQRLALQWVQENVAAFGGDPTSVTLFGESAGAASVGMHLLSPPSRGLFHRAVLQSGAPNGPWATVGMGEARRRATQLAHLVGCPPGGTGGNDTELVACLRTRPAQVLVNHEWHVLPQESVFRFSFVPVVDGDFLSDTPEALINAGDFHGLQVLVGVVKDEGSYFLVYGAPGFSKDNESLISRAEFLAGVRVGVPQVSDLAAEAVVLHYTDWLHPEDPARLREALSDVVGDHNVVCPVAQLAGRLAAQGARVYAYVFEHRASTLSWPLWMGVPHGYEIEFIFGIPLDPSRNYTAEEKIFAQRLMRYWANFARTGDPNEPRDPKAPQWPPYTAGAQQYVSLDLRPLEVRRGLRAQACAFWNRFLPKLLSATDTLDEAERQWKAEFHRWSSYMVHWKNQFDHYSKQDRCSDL
T3 sequence (P06276 whole entry): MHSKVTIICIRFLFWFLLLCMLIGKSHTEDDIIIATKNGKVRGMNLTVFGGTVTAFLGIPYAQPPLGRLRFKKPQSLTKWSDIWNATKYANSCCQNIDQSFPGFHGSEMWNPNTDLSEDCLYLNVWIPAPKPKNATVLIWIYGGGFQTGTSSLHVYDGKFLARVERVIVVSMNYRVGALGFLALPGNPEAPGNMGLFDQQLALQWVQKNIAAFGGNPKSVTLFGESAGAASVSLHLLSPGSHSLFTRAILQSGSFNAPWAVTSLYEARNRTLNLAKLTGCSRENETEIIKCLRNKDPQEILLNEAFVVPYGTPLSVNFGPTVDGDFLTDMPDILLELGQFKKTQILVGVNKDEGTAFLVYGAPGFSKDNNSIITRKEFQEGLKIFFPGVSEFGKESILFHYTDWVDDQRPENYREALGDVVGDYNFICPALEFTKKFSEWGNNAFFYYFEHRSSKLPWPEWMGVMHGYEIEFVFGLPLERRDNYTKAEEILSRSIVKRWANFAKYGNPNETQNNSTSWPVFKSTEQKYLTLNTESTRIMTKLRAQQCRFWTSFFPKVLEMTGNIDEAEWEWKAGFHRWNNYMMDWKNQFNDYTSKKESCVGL
T4 sequence (P56817 whole entry): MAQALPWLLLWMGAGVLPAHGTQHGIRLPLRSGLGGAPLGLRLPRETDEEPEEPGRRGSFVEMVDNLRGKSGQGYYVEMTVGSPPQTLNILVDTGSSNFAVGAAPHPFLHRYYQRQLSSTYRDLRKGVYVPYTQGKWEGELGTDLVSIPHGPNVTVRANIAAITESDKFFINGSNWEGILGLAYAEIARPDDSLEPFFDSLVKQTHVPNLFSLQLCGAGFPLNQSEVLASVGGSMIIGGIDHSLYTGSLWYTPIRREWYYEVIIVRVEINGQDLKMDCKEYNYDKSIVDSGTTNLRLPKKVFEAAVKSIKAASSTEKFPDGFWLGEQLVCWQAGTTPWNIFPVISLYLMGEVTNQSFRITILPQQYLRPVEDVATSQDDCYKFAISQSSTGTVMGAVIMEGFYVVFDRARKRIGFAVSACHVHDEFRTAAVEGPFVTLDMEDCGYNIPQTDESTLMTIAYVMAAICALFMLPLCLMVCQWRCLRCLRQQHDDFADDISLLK
Glycogen synthase kinase-3 beta (Homo sapiens), sequence (P49841 whole entry, looked up): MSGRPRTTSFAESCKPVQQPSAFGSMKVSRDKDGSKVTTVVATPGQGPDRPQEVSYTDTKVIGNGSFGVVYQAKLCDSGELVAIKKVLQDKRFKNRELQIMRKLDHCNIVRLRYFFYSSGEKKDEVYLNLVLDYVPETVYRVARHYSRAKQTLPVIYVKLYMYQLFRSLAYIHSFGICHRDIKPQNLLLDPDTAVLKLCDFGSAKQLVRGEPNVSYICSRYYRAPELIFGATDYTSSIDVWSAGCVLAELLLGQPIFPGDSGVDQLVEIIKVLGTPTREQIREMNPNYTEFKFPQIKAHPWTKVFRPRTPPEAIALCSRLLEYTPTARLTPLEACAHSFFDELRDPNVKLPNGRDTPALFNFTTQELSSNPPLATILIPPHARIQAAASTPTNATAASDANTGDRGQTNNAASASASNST

Regarding `O=C(O[C@@H]1Cc2c(O)cc(O)cc2O[C@@H]1c1cc(O)c(O)c(O)c1)c1cc(O)c(O)c(O)c1` [EPIGALOCATECHIN GALLATE], the IC50 – broadly, the concentration at which inhibition is half-maximal – in assay [1] was determined as 180 nM.

`CN(C)Cc1c(O)c(O)c(O)c2c(=O)cc(-c3ccccc3)oc12` gave an IC50 at Acetylcholinesterase [2] of 82000 nM.

On to `O=c1cc(-c2ccc(O)c(O)c2)oc2cc(O)cc(O)c12` [LUTEOLIN], for which, in the assay on Mus musculus [3], the Activity was determined as 49%.

As to `O=c1c(O)c(-c2ccc(O)cc2O)oc2cc(O)cc(O)c12` [MORIN], the IC50 in assay [4] came out at 7400 nM.

In the case of `Cc1ccc(NCC[C@@H]2CCCN3CCCC[C@H]23)c2c(=O)c3ccccc3oc12`, the IC50 at Acetylcholinesterase [2] was determined as 140 nM; against Cholinesterase [5], 370 nM; in [6] it was 13000 nM.

Take `COc1cc(-c2oc3cc(O)cc(O)c3c(=O)c2O)ccc1O` [ISORHAMNETIN]: the Activity with SH-SY5Y [7] is given as 64%.

Turning to `Cc1ccc(NCC[C@@H]2CCCN3CCCC[C@H]23)c2c(=O)c3ccccc3sc12`, the IC50 against Acetylcholinesterase [2] was 5200 nM; against Cholinesterase [5], 460 nM; in assay [6] it was 840 nM.

Consider `CCN(CC)CCCCOc1cc(O)c2c(=O)c(-c3ccc(O)cc3)coc2c1`, for which the IC50 on Acetylcholinesterase [2] is 100 nM; against Cholinesterase [5], greater than 100000 nM. In the assay on SH-SY5Y [8], this molecule returned an Activity of 75.7%.

`COc1cc(-c2cc(=O)c3c(O)c([C@@H]4O[C@H](CO)[C@@H](O)[C@H](O)[C@H]4O)c(O)cc3o2)ccc1O`: the inhibition – broadly, the share of the control response that was lost under treatment – in [9] amounted to 41.5%.

With `O=c1cc(-c2ccc(O)c(O)c2)oc2cc(O)c([C@@H]3O[C@H](CO)[C@@H](O)[C@H](O)[C@H]3O)c(O)c12`, in assay [9], the inhibition amounted to 48.4%.

In turn, `COc1cc(O)c2c(=O)c(O)c(-c3ccc(O)c(O)c3)oc2c1` [RHAMNETIN] had an IC50 in [4] of 2300 nM.

With `CCN(CC)C(=O)Oc1ccc(-c2cc(=O)c3c(O)c(O)c(O)cc3o2)cc1`, the IC50 at Acetylcholinesterase [2] is 1200 nM; at Cholinesterase [5], 22100 nM. In addition, the Activity in assay [10] was 10.3.

For `CNC(=O)Oc1cccc(CN(C)CCCCCCCOc2cccc(-c3cc(=O)c4ccccc4o3)c2)c1`, the IC50 at Acetylcholinesterase [11] is 0.52 nM; on Cholinesterase [12], 63.7 nM. The inhibition in [13] worked out at 17.2%.

On to `CC(C)=CCc1cc2c(cc1O)O[C@@H](c1ccc(O)cc1)CC2=O`, for which the inhibition amounted to 19% in assay [14], 17% on Beta-secretase 1 [15] and 34% against Acetylcholinesterase [16].

The molecule `COc1cc2oc3cccc(O)c3c(=O)c2c(O)c1CN(C)C` gave an IC50 on Acetylcholinesterase [2] of 100000 nM.

On to `COc1ccc(/C=C2\COc3cc(OCCCN4CCCCC4)ccc3C2=O)cc1`, for which the IC50 came out at 3940 nM on Acetylcholinesterase [2], 9210 nM at Cholinesterase [5] and 3440 nM in [17].

Consider `COc1c(O)cc2oc3cc(O)c(CC=C(C)C)c(O)c3c(=O)c2c1CCC(C)(C)O` [GARCINONE D], for which the inhibition at Cholinesterase [18] turned out to be 15%; against Acetylcholinesterase [19], 12.9%; against Beta-secretase 1 [20], 62.7%; in assay [21], 34.9%. For the same molecule, the Activity in the assay on HT-22 amounted to 45.4%.

For the molecule `O=c1c(O)c(-c2cc(O)c(O)c(O)c2)oc2cc(O)cc(O)c12`, the inhibition in [22] came to 65.2%.

On to `COc1cc2c(cc1CC=C(C)C)C(=O)C[C@@H](c1ccc(O)cc1)O2`, for which the inhibition turned out to be 57% in assay [14], 21% on Beta-secretase 1 [15] and 81% at Acetylcholinesterase [16].

Turning to `O=C(O[C@H]1Cc2c(O)cc(O)cc2O[C@H]1c1ccc(O)c(O)c1)c1cc(O)c(O)c(O)c1`, the IC50 against Beta-secretase 1 [23] amounted to 2400 nM; in assay [1], 3000 nM.

For the molecule `COc1ccc(-c2cc(=O)c3ccc(OCCN4CCOCC4)cc3o2)cc1`, the IC50 was determined as 11 nM against Acetylcholinesterase [2] and 54.3 nM against Cholinesterase [5].

For `O=c1c(O)c(-c2ccc(O)c(O)c2)oc2cc(O)ccc12` [FISETIN], in [4], the IC50 was determined as 12500 nM.

On to `O=c1cc(-c2ccc(O)cc2)oc2cc(O)cc(O)c12` [APIGENIN], for which the Activity with Mus musculus [24] is 20%.

For `CCN(CC)CCOc1ccc2c(=O)cc(-c3ccc(OC)cc3)oc2c1`, the figures for the IC50 against Acetylcholinesterase [2] and against Cholinesterase [5] were 27.1 nM and 49.1 nM, respectively.

Take `COc1ccc(-c2cc(=O)c3ccc(OCCN4CCN(CCO)CC4)cc3o2)cc1`: the IC50 came out at 7.56 nM at Acetylcholinesterase [2] and 21.6 nM against Cholinesterase [5].

In turn, `COc1ccc(/C=C2\COc3cc(OCCN4CCCCC4)ccc3C2=O)cc1` showed an IC50 in assay [17] of 25000 nM.

The molecule `Oc1cc(O)c2c(c1)O[C@H](c1ccc(O)c(O)c1)[C@H](O)C2` [(-)-EPICATECHIN] showed an IC50 in assay [1] of 5300 nM.

As for `O=c1c(O)c(-c2ccc(O)c(O)c2)oc2cc(O)cc(O)c12` [QUERCETIN], the IC50 in assay [4] amounted to 2400 nM.

As for `CCC(=O)CNC(=O)Nc1nc2ccc(-c3oc4c(OC)c(O)c(O)c(OC)c4c(=O)c3O)cc2s1`, the IC50 came out at 100 nM against Acetylcholinesterase [2], 0.32 nM at Cholinesterase [5] and 2100 nM against Beta-secretase 1 [23].

In turn, `COc1cc(O)c2c(=O)c3cccc(O)c3oc2c1` showed an IC50 in [25] of 33000 nM. At Acetylcholinesterase [26], the Ki (as a rule, a measure of affinity in units of concentration, obtained from inhibition or displacement) stood at 53000 nM.

In the case of `COc1ccc(/C=C2\COc3cc(OCCCCCN4CCCCC4)ccc3C2=O)cc1`, in assay [17], the IC50 is 650 nM.

Consider `CN(C)CCNC(=O)COc1cc(O)c2c(=O)c(-c3ccc(O)cc3)coc2c1.Cl`, for which, on Acetylcholinesterase [2], the IC50 came out at 2750 nM. In addition, the inhibition against Cholinesterase [18] was 26%. In the assay on HepG2, the Activity is recorded as 1.53%.

On to `COc1ccc(-c2cc(=O)c3ccc(OCCN4CCCC4)cc3o2)cc1`, for which the IC50 against Acetylcholinesterase [2] came to 105 nM; against Cholinesterase [5], 69.5 nM.

Take `C[C@@H]1O[C@@H](OC[C@H]2O[C@@H](Oc3cc(O)c4c(c3)O[C@H](c3ccc(O)cc3)CC4=O)[C@H](O)[C@@H](O)[C@@H]2O)[C@H](O)[C@H](O)[C@H]1O`: the inhibition in assay [27] is 53%; on Beta-secretase 1 [28], 79.3%.

Take `COc1ccc(-c2cc(=O)c3ccc(OCCN4CCC(C)CC4)cc3o2)cc1`: the IC50 at Acetylcholinesterase [2] worked out at 6.33 nM; against Cholinesterase [5], 24.7 nM.

Values taken from ChEMBL document CHEMBL5252548, “A review on flavonoid-based scaffolds as multi-target-directed ligands (MTDLs) for Alzheimer's disease” (Eur J Med Chem, 2018).
